Reference: the supplement of paper PMC3937590

Key:
Experiment in all cases: -log10 GI50 (growth inhibition 50%) (-log10(M)); higher = more potent growth inhibition
[1] = system: HCC38
Outline: (§1)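 Breast cancer cell lines were exposed to each compound for 72 hours at nine doses in 1:5 serial dilution, in triplicate, with a luminescence read-out against a time-zero plate. A Gompertz curve was fitted to the dose-response data by nonlinear least squares. The value is minus log10 of GI50, the molar concentration giving the set level of growth inhibition. Values equal to the top dose carry a < qualifier.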

[2] = system: HCC70
Outline: as §1

[3] = system: MDAMB157
Outline: as §1

[4] = system: CAMA1
Outline: as §1

[5] = system: MDAMB175VII
Outline: as §1

[6] = system: 184A1
Outline: as §1

[7] = system: HCC1937
Outline: as §1

[8] = system: MCF10F
Outline: as §1

[9] = system: UACC812
Outline: as §1

[10] = system: HCC1954
Outline: as §1

[11] = system: SUM149PT
Outline: as §1

[12] = system: ZR75B
Outline: as §1

[13] = system: MCF10A
Outline: as §1

[14] = system: MX1
Outline: as §1

[15] = system: MDAMB134VI
Outline: as §1

[16] = system: MDAMB453
Outline: as §1

[17] = system: MCF7
Outline: as §1

[18] = system: HS578T
Outline: as §1

[19] = system: T47D
Outline: as §1

[20] = system: HCC1187
Outline: as §1

| SMILES | -log10 GI50 [1] | -log10 GI50 [2] | -log10 GI50 [3] | -log10 GI50 [4] | -log10 GI50 [5] | -log10 GI50 [6] | -log10 GI50 [7] | -log10 GI50 [8] | -log10 GI50 [9] | -log10 GI50 [10] | -log10 GI50 [11] | -log10 GI50 [12] | -log10 GI50 [13] | -log10 GI50 [14] | -log10 GI50 [15] | -log10 GI50 [16] | -log10 GI50 [17] | -log10 GI50 [18] | -log10 GI50 [19] | -log10 GI50 [20] |
| --- | --- | --- | --- | --- | --- | --- | --- | --- | --- | --- | --- | --- | --- | --- | --- | --- | --- | --- | --- | --- |
| CN(C)C/C=C/C(=O)Nc1cc2c(Nc3ccc(F)c(Cl)c3)ncnc2cc1O[C@H]1CCOC1 [BIBW2992] | 5.74 | 6.33 | 5.61 | 5.65 | 8.35 | 7.74 | 5.68 | 7.01 | 8.55 | 6.91 | 7.13 | 5.52 | 7.49 | 6.58 | 5.44 | 7.04 |  |  |  |  |
| CC(C)C[C@H](NC(=O)[C@H](Cc1ccccc1)NC(=O)c1cnccn1)B(O)O [Bortezomib] | 7.98 | 8.6 | 8.16 | 7.9 | 8.3 | 8.18 | 8.1 | 7.59 |  | 8.13 | 8 | 7.53 | 6.64 | 8.06 | 8.08 | 8.07 | 7.75 | 7.81 | 8.02 | 8.26 |
| COc1cc(Nc2c(C#N)cnc3cc(OCCCN4CCN(C)CC4)c(OC)cc23)c(Cl)cc1Cl [Bosutinib] | 6.05 | 6.03 | 5.88 | 5.11 | 6.07 | 6.3 | 5.84 | 5.75 | 5.56 | 5.92 | 6.13 | 5.15 | 5.85 | 6.38 | < 4 |  | 5.59 | 5.8 |  | 5.5 |
| CCN(CC)C(=S)SSC(=S)N(CC)CC [Disulfiram] | 5.96 | < 4.18 | 7.22 | 4.85 | 7.02 | 4.9 | 6.89 | < 4.18 | 7.03 | < 4.18 |  |  | 4.93 | 4.54 | 5.88 | 6.84 | 4.45 | 5.44 | 7.01 | 6.49 |
| COc1cc([C@@H]2c3cc4c(cc3[C@@H](O[C@@H]3O[C@@H]5CO[C@@H](C)O[C@H]5[C@H](O)[C@H]3O)[C@H]3COC(=O)[C@H]23)OCO4)cc(OC)c1O [Etoposide] | 6.54 | 4.89 | 6.02 | 5.31 | 4.19 | 5.08 | 5.34 | 6.13 |  | 6.01 | 5.58 | 6.06 | 5.43 | 6.34 | 5.61 | 5.3 | 5.13 | 5.22 | 5.99 | 6.21 |
